Where two headings read alike, the source gives them in different places. One block for each compound: values may come before it.
Columns and labels:
[1] = test system: MRSA clinical isolates; test: Broth dilution MIC in BHIG/X medium with subMIC BisEDT; type: cell-based, Staphylococcus aureus; conditions: for MIC: Staphylococcus aureus, MRSA, 12 MRSA clinical isolates, BHIG/X, mean ± SD, read-out: MIC
Protocol: (§1) Broth dilution antimicrobial susceptibility studies were performed against 12 MRSA strains using several antibiotics combined with subMIC levels of BisEDT (Table 18). Both the biofilm-prevention concentration (BPC) and the minimum inhibitory concentration (MIC) were determined in a special biofilm culture medium (BHIG/X). […] These strains were already sensitive to vancomycin, but were made considerably moreso in the presence of subMIC BisEDT.
In this particular study, the data indicated synergy between BisEDT and cefepime (FIC<0.5), with many of the isolates at the breakpoint for sensitivity.

[2] = test system: S. epidermidis biofilm; test: Biofilm prevention concentration (BPC), BisEDT and antibiotics; type: cell-based, Staphylococcus epidermidis; conditions: 0.05 μg/ml BisEDT
Protocol: (§2) S. epidermidis grown in TSB+2% glucose in polystyrene plates for 48 h at 37° C. Gatifloxacin (GF), clindamycin (CM), minocycline (MC), gentamicin (GM), vancomycin (VM), cefazolin (CZ), nafcillin (NC), and rifampicin (RP). […]

[3] = test system: S. epidermidis S2400-1 biofilm; test: Biofilm prevention, BisEDT-antibiotic combinations; type: cell-based, Staphylococcus epidermidis
Protocol: as §2

[4] = test system: S. epidermidis; test: Growth inhibition (MIC) and MBC, BisEDT and antibiotics; type: cell-based, Staphylococcus epidermidis
Source text: Results are expressed as the mean change in MIC (dilution steps) with increasing BisEDT (n=3). See legend in FIG. 5 for antibiotic definitions.
The MIC change was most pronounced for clindamycin and gentamicin, followed by vancomycin, cefazolin, minocycline, gatifloxacin and nafcillin, with rifampicin unaffected.
Minimum bactericidal concentration (MBC) for most antibiotics tested against S. epidermidis decreased slightly with subMIC BisEDT. […] Clindamycin is a bacteriostatic agent, which explains its lack of bactericidal activity. Cefazolin resistance was reversed with respect to the MBC [Domenico et al., 2003]. These effects were additive.

[5] = test system: S. epidermidis; test: Broth dilution MIC/MBC, BT-antibiotic combinations; type: cell-based, Staphylococcus epidermidis; conditions: S. epidermidis S2400-1
Protocol: Materials & Methods. Susceptibility studies were performed by broth dilution in 96-well tissue culture plates (Nalge Nunc International, Denmark) in accordance with NCCLS protocols (National Committee for Clinical Laboratory Standards. (1997). Methods for Dilution Antimicrobial Susceptibility Tests for Bacteria that Grow Aerobically: Approved Standard M7-A2 and Informational Supplement M100-S10. NCCLS, Wayne, Pa., USA).
Briefly, overnight bacterial cultures were used to prepare 0.5 McFarland standard suspensions, which were further diluted 1:50 (˜2×10^6 cfu/mL) in cation-adjusted Mueller-Hinton broth medium (BBL, Cockeysville, Md., USA). BTs (prepared as described above) and antibiotics were added at incremental concentrations, keeping the final volume constant at 0.2 mL. Cultures were incubated for 24 h at 37° C. and turbidity was assessed by absorption at 630 nm using an ELISA plate reader (Biotek Instruments, Winooski, Vt., USA) according to the manufacturer's recommendations. […] Viable bacterial counts (cfu/mL) were determined by standard plating on nutrient agar.
The checkerboard method was used to assess the activity of antimicrobial combinations. The fractional inhibitory concentration index (FICI) and the fractional bactericidal concentration index (FBCI) were calculated, according to Eliopoulos et al. (Eliopoulos and Moellering, (1996) Antimicrobial combinations. In Antibiotics in Laboratory Medicine (Lorian, V., Ed.), pp. 330-96, Williams and Wilkins, Baltimore, Md., USA). Synergy was defined as an FICI or FBCI index of […], no interaction at >0.5-4 and antagonism at >4 (Odds, F C (2003) Synergy, antagonism, and what the chequerboard puts between them. Journal of Antimicrobial Chemotherapy 52:1). Synergy was also defined conventionally as ≧4-fold decrease in antibiotic concentration.

[6] = test system: MRSA clinical isolates biofilm; test: Biofilm-prevention concentration (BPC) in BHIG/X medium with subMIC BisEDT; type: cell-based, Staphylococcus aureus; conditions: 12 MRSA clinical isolates, mean ± SD
Protocol: as §1

[7] = test system: lawn of MRSA (Methicillin-resistant S. aureus); test: Antibiotic-soaked discs on bacterial lawn with and without BisEDT; type: cell-based, Staphylococcus aureus; conditions: antibiotic discs combined with BisEDT 0.05 μg/ml
Protocol: FIGS. 4A and 4B show the subinhibitory BisEDT reversing antibiotic-resistance to several antibiotics. Effects of antibiotics with and without BisEDT (0.05 μg/ml) on a lawn of MRSA (Methicillin-resistant S. aureus) is shown. […] [GM=gentamicin, CZ=cefazolin, FEP=cefepime, IPM=imipenim, SAM=ampicillin/sulbactam, LVX=levofloxacin.

[8] = test system: MRSA clinical isolates; conditions: cited from earlier work; for MIC Standards, R (resistance): Standard MIC breakpoint for resistance; for MIC Standards, S (antibiotic sensitivity): Standard MIC breakpoint for sensitivity
[9] = test system: Bukholderia multivorans; test: Single-point BisEDT-antibiotic combination FICI; type: cell-based; conditions: Bmult 5665
[10] = test system: Klebsiella pneumoniae; test: Single-point BisEDT-antibiotic combination FICI; type: cell-based; conditions: KP 1231
[11] = test system: Pseudomonas aeruginosa; test: Single-point BisEDT-antibiotic combination FICI; type: cell-based; conditions: PA 1380
[12] = test system: Escherichia coli; test: Single-point BisEDT-antibiotic combination FICI; type: cell-based
[13] = test system: P. aeruginosa; test: Checkerboard broth microdilution MIC and FICI; type: cell-based, Pseudomonas aeruginosa; conditions: compound alone; for MIC: Pseudomonas aeruginosa, read-out: MIC (μg/mL) Alone
Protocol: The effects of combinations of microparticulate Bis-EDT and four Bis-EDT analogs prepared as described above, and other agents against representative strains of several Gram-negative pathogenic bacteria were tested. A modification of a common laboratory method was used to determine synergism (FICI≦0.5), enhancement (0.5<FICI≦1.0), antagonism (FICI>4.0) and indifference (1.0<FICI≦4.0) used fractional inhibitory concentrations (FICs) and FIC indices (FICI) (Eliopoulos G and R Moellering. 1991. Antimicrobial combinations. In Antibiotics in Laboratory Medicine, Third Edition, edited by V Lorian. Williams and Wilkins, Baltimore, Md., pp. 432-492; Odds, 2003 J. Antimicrob. Chemother. 52(1):1). The checkerboard technique was used to determine FIC indices and was employed in this study.
Stock solutions of all test articles were prepared at 40× the final target concentration in the appropriate solvent. […] The final drug concentrations in the FIC assay plates were set to bracket the MIC value of each agent for each test organism, unless the strain was totally resistant to the test agent. […] The test organisms were originally received from clinical sources, or from the American Type Culture Collection. Upon receipt, the isolates were streaked onto Tryptic Soy Agar II (TSA). Colonies were harvested from these plates and a cell suspension was prepared in an appropriate broth growth medium containing cryoprotectant. Aliquots were then frozen at −80° C. The frozen seeds of the organisms to be tested in a given assay were thawed, streaked for isolation onto TSA plates, and incubated at 35° C. All organisms were tested in Mueller Hinton II Broth (Becton Dickinson, Lot No. 9044411). The broth was prepared at 1.05× normal weight/volume to offset the 5% volume of the drugs in the final test plates.
Minimal Inhibitory Concentration (MIC) values were previously determined using the broth microdilution method for aerobic bacteria (Clinical and Laboratory Standards Institute (CLSI). Methods for Dilution Antimicrobial Susceptibility Tests for Bacteria That Grow Aerobically; Approved Standard—Eighth Edition. CLSI document M07-A8 [ISBN 1-56238-689-1]. Clinical and Laboratory Standards Institute, 940 West Valley Road, Suite 1400, Wayne, Pa. 19087-1898 USA, 2009.).
FIC values were determined using a broth microdilution method previously described (Sweeney et al., 2003 Antimicrob. Agents Chemother. 47(6):1902-1906). To prepare the test plates, automated liquid handlers (Multidrop 384, Labsystems, Helsinki, Finland; Biomek 2000 and Multimek 96, Beckman Coulter, Fullerton Calif.) were used to conduct serial dilutions and liquid transfers.
The appropriate wells of standard 96-well microdilution plates (Falcon 3918) were filled with 150 μL of the appropriate solvent in columns 2-12 using the Multidrop 384. Three hundred microliters of each secondary test drug was added to each well in Column 1 of the plates. These plates were used to prepare the drug “mother plates” which provided the serial drug dilutions for the drug combination plates. The Biomek 2000 was used to transfer 150 μL of each secondary drug solution (40×) from the wells in Column 1 of the mother plate and to make eleven 2-fold serial dilutions. Mother plates of Bis-EDT (and analogs) were serial diluted top to bottom by hand, using a multichannel pipette. Two mother plates, one for each secondary drug and one for Bis-EDT (or analogs), were combined to form a “checkerboard” pattern by transfer of equal volumes (using a multi-channel pipette) to the drug combination plate. Row H and Column 12 each contained serial dilutions of one of the agents alone for determination of the MIC.
The “daughter plates” were loaded with 180 μL of test medium using the Multidrop 384. Then, the Multimek 96 was used to transfer 10 μL of drug solution from each well of the drug combination mother plate to each corresponding well of the daughter plate in a single step.

[14] = test system: Acinetobacter baumanii; test: Single-point BisEDT-antibiotic combination FICI; type: cell-based; conditions: Abau 2594
[15] = test system: Burkholderia cepacia; test: Single-point BisEDT-antibiotic combination FICI; type: cell-based; conditions: Bcep 1756

MIC ([1]; BisEDT 0 μg/mL): 93 ± 75 µg/mL
MIC ([1]; BisEDT 0.025 μg/mL): 99 ± 76 µg/mL
MIC ([1]; BisEDT 0.05 μg/mL): 90 ± 60 µg/mL
MIC ([1]; BisEDT 0.1 μg/mL): 45 ± 32 µg/mL
Δ (0.05 BE), MIC ([5]; 0.05 μg/ml BisEDT): 4.00
MIC ([5]; BisEDT 0 μg/ml): 32 µg/mL
MIC ([5]; BisEDT 0.05 μg/ml): 8 µg/mL
MIC ([5]; BisEDT 0.1 μg/ml): 1 µg/mL
Structure (SMILES): Cc1nnc(SCC2=C(C(=O)O)N3C(=O)[C@@H](NC(=O)Cn4cnnn4)[C@H]3SC2)s1 [Cefazolin, cefazolin]
Change of biofilm prevention concentration (BPC) [2]: modest decreases
Δ (0.05 BE), biofilm prevention ([3]; 0.05 μg/ml BisEDT): 2.8
Biofilm Prevention (antibiotic concentration) ([3]; BisEDT 0 μg/ml): 28 µg/mL
Biofilm Prevention (antibiotic concentration) ([3]; BisEDT 0.05 μg/ml): 10 µg/mL
Biofilm Prevention (antibiotic concentration) ([3]; BisEDT 0.1 μg/ml): 1 µg/mL
Reduction in MBC with subMIC BisEDT [4]: 4- to 5 fold
MIC change (growth inhibition) with BisEDT ([4]; 0.1 μg/ml (0.5 μM) BisEDT): resistance was reversed to clinically relevant levels
Synergy, MBC [5]: + (Synergy was also defined conventionally as ≧4-fold decrease in antibiotic concentration)
Synergy, MIC [5]: + (Synergy was also defined conventionally as ≧4-fold decrease in antibiotic concentration)
Δ (0.1 BE), MBC ([5]; 0.1 μg/ml BisEDT): 4.80
MBC ([5]; BisEDT 0.0 μg/ml): 48 µg/mL
MBC ([5]; BisEDT 0.1 μg/ml): 10 µg/mL
BPC ([6]; BisEDT 0 μg/mL): 109 ± 86 µg/mL
BPC ([6]; BisEDT 0.025 μg/mL): 76 ± 86 µg/mL
BPC ([6]; BisEDT 0.05 μg/mL): 76 ± 105 µg/mL
BPC ([6]; BisEDT 0.1 μg/mL): 34 ± 28 µg/mL
Antibiotic action on MRSA lawn with subMIC BisEDT [7]: enhanced antibiotic action
MIC Standards, R (resistance) [8]: ≧32 μg/ml
MIC Standards, S (antibiotic sensitivity) [8]: ≦8 μg/ml

MIC ([1]; BisEDT 0 μg/mL): 45 ± 32 µg/mL
MIC ([1]; BisEDT 0.025 μg/mL): 32 ± 28 µg/mL
MIC ([1]; BisEDT 0.05 μg/mL): 37 ± 24 µg/mL
MIC ([1]; BisEDT 0.1 μg/mL): 9.3 ± 6.1 µg/mL
MIC (μg/mL) Alone ([13]; P. aeruginosa 103): 1 µg/mL
MIC (μg/mL) Alone ([13]; P. aeruginosa 1479): 8 µg/mL
MIC (μg/mL) Alone ([13]; P. aeruginosa 2566): 16 µg/mL
MIC ([13]; P. aeruginosa 103): 2 µg/mL
MIC ([13]; P. aeruginosa 1381): 32 µg/mL
MIC ([13]; P. aeruginosa 1384): 2 µg/mL
MIC ([13]; P. aeruginosa 1474): 2 µg/mL
MIC ([13]; P. aeruginosa 1479): 4 µg/mL
MIC ([13]; P. aeruginosa 2566): 8 µg/mL
MIC ([13]; P. aeruginosa 2568): 2 µg/mL
Structure (SMILES): CO/N=C(\C(=O)N[C@@H]1C(=O)N2C(C(=O)[O-])=C(C[N+]3(C)CCCC3)CS[C@H]12)c1csc(N)n1 [Cefepime]
FICI, single-point BisEDT-antibiotic combination [9]: 0.96
Isolates in which BisEDT significantly enhanced inhibitory activity of cefepime ([1]; BisEDT at 0.1 μg/ml, 12 cefepime-resistant MRSA): 11 of 12
FIC, BisEDT and cefepime ([1]; cefepime-resistant MRSA isolates): < 0.5
FICI, single-point BisEDT-antibiotic combination [10]: 1.11
FICI, single-point BisEDT-antibiotic combination [11]: 0.62
FICI, single-point BisEDT-antibiotic combination ([12]; EC 102): 0.87
FICI, single-point BisEDT-antibiotic combination ([12]; EC 2232): 0.96
FICI, single-point BisEDT-antibiotic combination [14]: 0.71
BPC ([6]; BisEDT 0 μg/mL): 24 ± 37 µg/mL
BPC ([6]; BisEDT 0.025 μg/mL): 27 ± 28 µg/mL
BPC ([6]; BisEDT 0.05 μg/mL): 18 ± 16 µg/mL
BPC ([6]; BisEDT 0.1 μg/mL): 5.0 ± 7.3 µg/mL
Antibiotic action on MRSA lawn with subMIC BisEDT [7]: enhanced antibiotic action
MIC Standards, R (resistance) [8]: ≧32 μg/ml
MIC Standards, S (antibiotic sensitivity) [8]: ≦8 μg/ml
FICI, single-point BisEDT-antibiotic combination [15]: 1.34

— patent US9408393B2, “Bismuth-thiols as antiseptics for agricultural, industrial and other uses” (Microbion Corporation, priority 2010, dated 2016)
